From patent publication US20220041647A1, “ESTRA-1,3,5(10)-TRIENE COMPOUNDS CONDENSED IN POSITION 16(17) WITH A PYRAZOLE RING AS INHIBITORS OF 17-HSD1” (FORENDO PHARMA LTD, priority 2018, published 2022)

Biological target: T1, recombinant human 17β-HSD2 (Homo sapiens, UniProt P37059)
T1 construct: made in house; host or cells: Sd9 (Sf9) insect cells, baculovirus (Bac to Bac Expression System)
T1 sequence (P37059 1-387): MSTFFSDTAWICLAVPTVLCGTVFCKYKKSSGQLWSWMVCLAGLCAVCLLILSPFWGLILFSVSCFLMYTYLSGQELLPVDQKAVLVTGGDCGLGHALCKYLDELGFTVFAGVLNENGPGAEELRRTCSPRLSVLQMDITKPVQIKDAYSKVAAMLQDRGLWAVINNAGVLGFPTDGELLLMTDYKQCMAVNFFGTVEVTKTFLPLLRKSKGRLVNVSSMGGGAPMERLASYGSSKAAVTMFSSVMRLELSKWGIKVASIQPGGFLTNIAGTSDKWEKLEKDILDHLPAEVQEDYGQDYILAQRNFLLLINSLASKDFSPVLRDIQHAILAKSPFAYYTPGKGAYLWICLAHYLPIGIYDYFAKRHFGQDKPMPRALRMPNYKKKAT
Assay: Inhibition of recombinant human 17β-HSD2 (estradiol to estrone conversion, HPLC/radioactivity)
Assay type: biochemical
Settings: compound 1 μM; 50 nM estradiol, 1 mM NADH, 30 min RT
Method in brief: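 Membrane extract of Sf9 cells expressing recombinant human 17β-HSD2 (4 μg/ml), in 20 mM KH2PO4 pH 8.5 with 50 nM ^3H-spiked estradiol and 1 mM NADH, 30 min at RT, 1% DMSO. Compound at 1 μM or 0.1 μM; estrone formation by HPLC radioactivity, % inhibition relative to uninhibited conversion.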

Structure (SMILES) | inhibition at 1 µM
C[C@]12CCC3c4cccc(F)c4CCC3C1[C@H](CCC(=O)Nc1ncc(F)cc1F)c1c[nH]nc12 (stereo partly drawn) [Compound 9, N-(3,5-difluoropyridin-2-yl)-3-((8aS,12S)-3-fluoro-8a-methyl-1,2,6b,7,8,8a,10,12,12a,12b-decahydronaphtho[2′,1′:4,5]indeno[1,2-c]pyrazol-12-yl)propanamide] | 3%
C[C@]12CCC3c4cccc(F)c4CCC3C1[C@H](CCC(=O)Nc1cc(F)ccn1)c1c[nH]nc12 (stereo partly drawn) [Compound 15, 3-((8aS,12S)-3-fluoro-8a-methyl-1,2,6b,7,8,8a,10,12,12a,12b-decahydronaphtho[2′,1′:4,5]indeno[1,2-c]pyrazol-12-yl)-N-(4-fluoropyridin-2-yl)propanamide] | 6%
C[C@]12CCC3c4cccc(F)c4CCC3C1[C@H](CCC(=O)Nc1ccccn1)c1c[nH]nc12 (stereo partly drawn) [Compound 18, 3-((8aS,12S)-3-fluoro-8a-methyl-1,2,6b,7,8,8a,10,12,12a,12b-decahydronaphtho[2′,1′:4,5]indeno[1,2-c]pyrazol-12-yl)-N-(pyridin-2-yl)propanamide] | 1%
COc1ccc(NC(=O)CC[C@@H]2c3c[nH]nc3[C@@]3(C)CCC4c5cccc(F)c5CCC4C23)nc1 (stereo partly drawn) [Compound 21, 3-((8aS,12S)-3-fluoro-8a-methyl-1,2,6b,7,8,8a,10,12,12a,12b-decahydronaphtho[2′,1′:4,5]indeno[1,2-c]pyrazol-12-yl)-N-(5-methoxypyridin-2-yl)propanamide] | 4%
C[C@]12CCC3c4cccc(F)c4CCC3C1[C@H](CCC(=O)N1CCNC(=O)C1)c1c[nH]nc12 (stereo partly drawn) [Compound 24, 4-(3-((8aS,12S)-3-fluoro-8a-methyl-1,2,6b,7,8,8a,10,12,12a,12b-decahydronaphtho[2′,1′:4,5]indeno[1,2-c]pyrazol-12-yl)propanoyl)piperazin-2-one] | 1%
C[C@]12CCC3c4cccc(F)c4CCC3C1[C@H](CCC(=O)Nc1cc3c([nH]c1=O)CCCC3)c1c[nH]nc12 (stereo partly drawn) [Compound 30, 3-((8aS,12S)-3-fluoro-8a-methyl-1,2,6b,7,8,8a,10,12,12a,12b-decahydronaphtho[2′,1′:4,5]indeno[1,2-c]pyrazol-12-yl)-N-(2-oxo-1,2,5,6,7,8-hexahydroquinolin-3-yl)propanamide] | 3%
CN(C)C(=O)c1ccc(NC(=O)CC[C@@H]2c3c[nH]nc3[C@@]3(C)CCC4c5cccc(F)c5CCC4C23)nc1 (stereo partly drawn) [Compound 33, 6-(3-((8aS,12S)-3-fluoro-8a-methyl-1,2,6b,7,8,8a,10,12,12a,12b-decahydronaphtho[2′,1′:4,5]indeno[1,2-c]pyrazol-12-yl)propanamido)-N,N-dimethylnicotinamide] | 8%
CC(C)c1ccc(NC(=O)CC[C@@H]2c3c[nH]nc3[C@@]3(C)CCC4c5cccc(F)c5CCC4C23)nc1 (stereo partly drawn) [Compound 36, 3-((8aS,12S)-3-fluoro-8a-methyl-1,2,6b,7,8,8a,10,12,12a,12b-decahydronaphtho[2′,1′:4,5]indeno[1,2-c]pyrazol-12-yl)-N-(5-isopropylpyridin-2-yl)propanamide] | 8%
C[C@]12CCC3c4cccc(F)c4CCC3C1[C@H](CCC(=O)Nc1ccc(N3CCOCC3)cn1)c1c[nH]nc12 (stereo partly drawn) [Compound 39, 3-((8aS,12S)-3-fluoro-8a-methyl-1,2,6b,7,8,8a,10,12,12a,12b-decahydronaphtho[2′,1′:4,5]indeno[1,2-c]pyrazol-12-yl)-N-(5-morpholinopyridin-2-yl)propanamide] | 9%
CN1CCN(c2ccc(NC(=O)CC[C@@H]3c4c[nH]nc4[C@@]4(C)CCC5c6cccc(F)c6CCC5C34)nc2)CC1 (stereo partly drawn) [Compound 42, 3-((8aS,12S)-3-fluoro-8a-methyl-1,2,6b,7,8,8a,10,12,12a,12b-decahydronaphtho[2′,1′:4,5]indeno[1,2-c]pyrazol-12-yl)-N-(5-(4-methylpiperazin-1-yl)pyridin-2-yl)propanamide] | 34%
COc1ccnc(NC(=O)CC[C@@H]2c3c[nH]nc3[C@@]3(C)CCC4c5cccc(F)c5CCC4C23)c1 (stereo partly drawn) [Compound 48, 3-((8aS,12S)-3-fluoro-8a-methyl-1,2,6b,7,8,8a,10,12,12a,12b-decahydronaphtho[2′,1′:4,5]indeno[1,2-c]pyrazol-12-yl)-N-(4-methoxypyridin-2-yl)propanamide] | 5%
C[C@]12CCC3c4cccc(F)c4CCC3C1[C@H](CCC(=O)Nc1cnccn1)c1c[nH]nc12 (stereo partly drawn) [Compound 51, 3-((8aS,12S)-3-fluoro-8a-methyl-1,2,6b,7,8,8a,10,12,12a,12b-decahydronaphtho[2′,1′:4,5]indeno[1,2-c]pyrazol-12-yl)-N-(pyrazin-2-yl)propanamide] | 1%
Cn1ccc(NC(=O)CC[C@@H]2c3c[nH]nc3[C@@]3(C)CCC4c5cccc(F)c5CCC4C23)n1 (stereo partly drawn) [Compound 54, 3-((8aS,12S)-3-fluoro-8a-methyl-1,2,6b,7,8,8a,10,12,12a,12b-decahydronaphtho[2′,1′:4,5]indeno[1,2-c]pyrazol-12-yl)-N-(1-methyl-1H-pyrazol-3-yl)propanamide] | 8%
C[C@]12CCC3c4cccc(F)c4CCC3C1[C@H](CCC(=O)N1Cc3ccccc3C1)c1c[nH]nc12 (stereo partly drawn) [Compound 57, 3-((8aS,12S)-3-fluoro-8a-methyl-1,2,6b,7,8,8a,10,12,12a,12b-decahydronaphtho[2′,1′:4,5]indeno[1,2-c]pyrazol-12-yl)-1-(isoindolin-2-yl)propan-1-one] | 16%
COc1ccc(NC(=O)CC[C@@H]2c3c[nH]nc3[C@@]3(C)CCC4c5ccc(F)cc5CCC4C23)nc1 (stereo partly drawn) [Compound 84, 3-((8aS,12S)-4-fluoro-8a-methyl-1,2,6b,7,8,8a,10,12,12a,12b-decahydronaphtho[2′,1′:4,5]indeno[1,2-c]pyrazol-12-yl)-N-(5-methoxypyridin-2-yl)propanamide] | 2%
CC(C)c1ccc(NC(=O)CC[C@@H]2c3c[nH]nc3[C@@]3(C)CCC4c5ccc(F)cc5CCC4C23)nc1 (stereo partly drawn) [Compound 87, 3-((8aS,12S)-4-fluoro-8a-methyl-1,2,6b,7,8,8a,10,12,12a,12b-decahydronaphtho[2′,1′:4,5]indeno[1,2-c]pyrazol-12-yl)-N-(5-isopropylpyridin-2-yl)propanamide] | 6%
COc1ccnc(NC(=O)CC[C@@H]2c3c[nH]nc3[C@@]3(C)CCC4c5ccc(F)cc5CCC4C23)c1 (stereo partly drawn) [Compound 90, 3-((8aS,12S)-4-fluoro-8a-methyl-1,2,6b,7,8,8a,10,12,12a,12b-decahydronaphtho[2′,1′:4,5]indeno[1,2-c]pyrazol-12-yl)-N-(4-methoxypyridin-2-yl)propanamide] | 3%
Cc1ccnc(NC(=O)CC[C@@H]2c3c[nH]nc3[C@@]3(C)CCC4c5ccc(F)cc5CCC4C23)c1 (stereo partly drawn) [Compound 93, 3-((8aS,12S)-4-fluoro-8a-methyl-1,2,6b,7,8,8a,10,12,12a,12b-decahydronaphtho[2′,1′:4,5]indeno[1,2-c]pyrazol-12-yl)-N-(4-methylpyridin-2-yl)-propanamide] | 4%
C[C@]12CCC3c4ccc(F)cc4CCC3C1[C@H](CCC(=O)Nc1ccc(N3CCOCC3)cn1)c1c[nH]nc12 (stereo partly drawn) [Compound 96, 3-((8aS,12S)-4-fluoro-8a-methyl-1,2,6b,7,8,8a,10,12,12a,12b-decahydronaphtho[2′,1′:4,5]indeno[1,2-c]pyrazol-12-yl)-N-(5-morpholinopyridin-2-yl)propanamide] | 5%
C[C@]12CCC3c4ccc(F)cc4CCC3C1[C@H](CCC(=O)Nc1ccc(F)cn1)c1c[nH]nc12 (stereo partly drawn) [Compound 99, 3-((8aS,12S)-4-fluoro-8a-methyl-1,2,6b,7,8,8a,10,12,12a,12b-decahydronaphtho[2′,1′:4,5]indeno[1,2-c]pyrazol-12-yl)-N-(5-fluoropyridin-2-yl)propanamide] | 4%
C[C@]12CCC3c4ccc(Cl)cc4CCC3C1[C@H](CCC(=O)Nc1cc3c([nH]c1=O)CCCC3)c1c[nH]nc12 (stereo partly drawn) [Compound 123, 3-((8aS,12S)-4-chloro-8a-methyl-1,2,6b,7,8,8a,10,12,12a,12b-decahydronaphtho[2′,1′:4,5]indeno[1,2-c]pyrazol-12-yl)-N-(2-oxo-1,2,5,6,7,8-hexahydroquinolin-3-yl) propanamide] | 8%
CN(C)C(=O)c1ccc(NC(=O)CC[C@@H]2c3c[nH]nc3[C@@]3(C)CCC4c5ccc(Cl)cc5CCC4C23)nc1 (stereo partly drawn) [Compound 126, 6-(3-((8aS,12S)-4-chloro-8a-methyl-1,2,6b,7,8,8a,10,12,12a,12b-decahydronaphtho[2′,1′:4,5]indeno[1,2-c]pyrazol-12-yl)propanamido)-N,N-dimethylnicotinamide] | 12%
CC(C)c1ccc(NC(=O)CC[C@@H]2c3c[nH]nc3[C@@]3(C)CCC4c5ccccc5CCC4C23)nc1 (stereo partly drawn) [Compound 138, N-(5-isopropylpyridin-2-yl)-3-((8aS,12S)-8a-methyl-1,2,6b,7,8,8a,10,12,12a,12b-decahydronaphtho[2′,1′:4,5]indeno[1,2-c]pyrazol-12-yl)propanamide] | 7%
COc1ccc(NC(=O)CC[C@@H]2c3c[nH]nc3[C@@]3(C)CCC4c5ccccc5CCC4C23)nc1 (stereo partly drawn) [Compound 141, N-(5-methoxypyridin-2-yl)-3-((8aS,12S)-8a-methyl-1,2,6b,7,8,8a,10,12,12a,12b-decahydronaphtho[2′,1′:4,5]indeno[1,2-c]pyrazol-12-yl)propanamide] | -1%
